Laboratory results taken from the supplement of paper PMC10307832.

What was measured:
Assay in all cases: relative viability (nuclei count vs DMSO), 5 days (fraction); higher = more cells survive
[1] = compound: C1CN(CCC1C(C2=CC3=C(C=C2)OCO3)(C4=CC5=C(C=C4)OCO5)O)C(=O)OC6=CC=C(C=C6)[N+](=O)[O-] [JZL-184] + CS(=O)(=O)CCNCc1ccc(-c2ccc3ncnc(Nc4ccc(OCc5cccc(F)c5)c(Cl)c4)c3c2)o1 [Lapatinib] (partner 2 µM)
How it was run: (§1)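 Values are medians from duplicate plates. Each reflects relative viability, defined as the nuclei count of treated wells over that of vehicle wells. Lung cancer cell lines in 1536-well plates were pin-tool dosed one day after seeding with one drug alone or with a fixed anchor-drug dose plus five library-drug doses (not always all listed) in √10 steps, then fixed, stained and imaged at 4× after 5 days.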

[2] = compound: C1CN(CCC1C(C2=CC3=C(C=C2)OCO3)(C4=CC5=C(C=C4)OCO5)O)C(=O)OC6=CC=C(C=C6)[N+](=O)[O-] [JZL-184] + CS(=O)(=O)N1CCN(Cc2cc3nc(-c4cccc5[nH]ncc45)nc(N4CCOCC4)c3s2)CC1 [Pictilisib] (partner 1 µM)
How it was run: as §1

[3] = compound: C1CN(CCC1C(C2=CC3=C(C=C2)OCO3)(C4=CC5=C(C=C4)OCO5)O)C(=O)OC6=CC=C(C=C6)[N+](=O)[O-] [JZL-184] + Cc1nc(NC(=O)N2CCC[C@H]2C(N)=O)sc1-c1ccnc(C(C)(C)C(F)(F)F)c1 [Alpelisib] (partner 2 µM)
How it was run: as §1

[4] = compound: C1CN(CCC1C(C2=CC3=C(C=C2)OCO3)(C4=CC5=C(C=C4)OCO5)O)C(=O)OC6=CC=C(C=C6)[N+](=O)[O-] [JZL-184] + Cc1nc(Nc2ncc(C(=O)Nc3c(C)cccc3Cl)s2)cc(N2CCN(CCO)CC2)n1 [Dasatinib] (partner 0.075 µM)
How it was run: as §1

[5] = compound: C1CN(CCC1C(C2=CC3=C(C=C2)OCO3)(C4=CC5=C(C=C4)OCO5)O)C(=O)OC6=CC=C(C=C6)[N+](=O)[O-] [JZL-184] + N=C(N)NC(=N)NCCc1ccccc1 [Phenformin] (partner 250 µM)
How it was run: as §1

Cell Line | relative viability ([1]; first compound 0.04 µM) | relative viability ([1]; first compound 0.4 µM) | relative viability ([1]; first compound 1.265 µM) | relative viability ([1]; first compound 4 µM) | relative viability ([2]; first compound 0.04 µM) | relative viability ([2]; first compound 0.4 µM) | relative viability ([2]; first compound 1.265 µM) | relative viability ([2]; first compound 4 µM) | relative viability ([3]; first compound 0.04 µM) | relative viability ([3]; first compound 0.4 µM) | relative viability ([3]; first compound 1.265 µM) | relative viability ([3]; first compound 4 µM) | relative viability ([4]; first compound 0.04 µM) | relative viability ([4]; first compound 0.4 µM) | relative viability ([4]; first compound 1.265 µM) | relative viability ([4]; first compound 4 µM) | relative viability ([5]; first compound 0.04 µM) | relative viability ([5]; first compound 0.4 µM) | relative viability ([5]; first compound 1.265 µM) | relative viability ([5]; first compound 4 µM)
NCI-H2170 | 0.302 | 0.252 | 0.285 | 0.275 | 0.341 | 0.309 | 0.332 | 0.331 | 0.806 | 0.793 | 0.74 | 0.736 | 0.654 | 0.476 | 0.577 | 0.598 | 0.435 | 0.407 | 0.419 | 0.419
NCI-H2228 | 1.37 | 0.796 | 1.03 | 1.15 | 0.235 | 0.311 | 0.309 | 0.518 | 0.894 | 0.726 | 0.709 | 0.789 | 0.663 | 0.445 | 0.543 | 0.587 | 0.405 | 0.239 | 0.317 | 0.412
NCI-H2347 | 1.1 | 0.884 | 0.953 | 0.815 | 0.768 | 0.654 | 0.61 | 0.688 | 1.05 | 1.02 | 1.05 | 1.1 | 0.277 | 0.305 | 0.29 | 0.369 | 0.357 | 0.393 | 0.369 | 0.536
NCI-H2405 | 1.17 | 1.04 | 1.21 | 0.96 | 0.531 | 0.444 | 0.493 | 0.486 | 0.673 | 0.794 | 0.83 | 0.816 | 0.222 | 0.21 | 0.225 | 0.231 | 0.336 | 0.398 | 0.419 | 0.392
NCI-H3122 | 0.959 | 0.916 | 1.01 | 1.08 | 0.678 | 0.602 | 0.59 | 0.581 | 0.751 | 0.813 | 0.646 | 0.804 | 0.918 | 0.718 | 0.872 | 0.778 | 0.38 | 0.387 | 0.376 | 0.39
PC-3 [JPC-3] | 0.521 | 0.439 | 0.441 | 0.435 | 0.773 | 0.735 | 0.773 | 0.738 | 1.09 | 0.961 | 1.05 | 1.01 | 1.01 | 0.905 | 0.976 | 0.945 | 0.45 | 0.464 | 0.495 | 0.487
